Experimental data from US20260062443A1 (ALEXION PHARMACEUTICALS, INC., priority 2022, published 2026).

Target: T1, Human complement C1s enzyme (Homo sapiens, UniProt P09871)
T1 sequence (P09871 438-688 limits assumed): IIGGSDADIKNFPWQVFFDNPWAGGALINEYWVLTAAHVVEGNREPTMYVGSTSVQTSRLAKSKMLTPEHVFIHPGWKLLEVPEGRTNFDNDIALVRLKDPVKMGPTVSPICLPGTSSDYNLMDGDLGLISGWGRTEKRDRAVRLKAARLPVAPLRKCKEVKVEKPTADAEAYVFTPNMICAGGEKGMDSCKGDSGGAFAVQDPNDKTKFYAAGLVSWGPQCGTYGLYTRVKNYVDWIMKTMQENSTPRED
T1 sequence (P09871 16-437 partner limits assumed): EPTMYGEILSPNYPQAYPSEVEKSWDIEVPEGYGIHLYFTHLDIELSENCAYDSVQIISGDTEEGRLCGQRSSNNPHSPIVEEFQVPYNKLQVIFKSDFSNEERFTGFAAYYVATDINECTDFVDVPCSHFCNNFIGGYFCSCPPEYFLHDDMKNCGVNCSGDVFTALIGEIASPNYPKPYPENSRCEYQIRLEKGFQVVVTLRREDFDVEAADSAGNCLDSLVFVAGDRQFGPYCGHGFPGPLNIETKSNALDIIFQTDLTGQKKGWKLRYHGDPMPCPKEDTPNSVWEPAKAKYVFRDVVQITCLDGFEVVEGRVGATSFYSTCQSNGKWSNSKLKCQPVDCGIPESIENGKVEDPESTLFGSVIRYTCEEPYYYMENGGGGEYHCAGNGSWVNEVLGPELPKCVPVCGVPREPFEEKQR
Assay: Human C1s enzyme assay
Format: biochemical
Details: human complement C1s enzyme 1.16 nM, substrate Z-L-Lys-SBzl 100 μM, 5 min preincubation; read-out: IC50 (Stars), C1s Inhibiting Activity
How it was run: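 IC50 from nonlinear regression of reaction rates versus compound concentration, with rates taken from A405 recorded at 30 s intervals over 30 min after adding 100 μM Z-L-Lys-SBzl plus 100 μM DTNB. Enzyme was human C1s purified from serum, 1.16 nM, given 5 min compound preincubation at room temperature, pH 7.5 Tris/1 M NaCl.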

SMILES	IC50 [nM]
Cc1ccc(Oc2cccc(C(=O)NCC(=O)N3C[C@@](F)(CF)C[C@H]3C(=O)NCc3cc4cnccc4[nH]3)c2)c(F)c1 [Compound 319, (2S,4R)-N-((1H-pyrrolo[3,2-c]pyridin-2-yl)methyl)-4-fluoro-1-((3-(2-fluoro-4-methylphenoxy)benzoyl)glycyl)-4-(fluoromethyl) pyrrolidine-2-carboxamide]	< 100
Cc1ccc(Nc2cccc(C(=O)NCC(=O)N3C[C@H](OC(F)F)C[C@H]3C(=O)NCc3cc4cnccc4[nH]3)c2)c(F)c1 [Compound 324, (2S,4R)-N-((1H-pyrrolo[3,2-c]pyridin-2-yl)methyl)-4-(difluoromethoxy)-1-((3-((2-fluoro-4-methylphenyl)amino)benzoyl)glycyl) pyrrolidine-2-carboxamide]	< 100
C[C@@H](NC(=O)[C@@H]1CC2(CN1C(=O)CNC(=O)c1ccc3oc4ccccc4c3c1)OCCO2)c1cc2cnccc2[nH]1 [Compound 300, (S)-N-((R)-1-(1H-pyrrolo[3,2-c]pyridin-2-yl)ethyl)-7-((dibenzo[b,d]furan-2-carbonyl)glycyl)-1,4-dioxa-7-azaspiro[4.4]nonane-8-carboxamide]	< 100
COC[C@@]12C[C@@H]1N(C(=O)CNC(=O)c1ccc3c(c1)Oc1ccccc1S3)[C@H](C(=O)N[C@H](C)c1cc3cnccc3[nH]1)C2 [Compound 191, (1S,3S,5R)-N-((R)-1-(1H-pyrrolo[3,2-c]pyridin-2-yl)ethyl)-5-(methoxymethyl)-2-((phenoxathiine-3-carbonyl)glycyl)-2-azabicyclo[3.1.0]hexane-3-carboxamide]	< 100
O=C(NCC(=O)N1C[C@H](OC(F)F)C[C@H]1C(=O)NCc1ccc2[nH]ncc2n1)c1ccc2c(c1)Oc1ccccc1S2 [Compound 227, (2S,4R)-N-((1H-pyrazolo[4,3-b]pyridin-5-yl)methyl)-4-(difluoromethoxy)-1-((phenoxathiine-3-carbonyl)glycyl)pyrrolidine-2-carboxamide]	> 1000
Cc1cc(CN)cc(C2(NC(=O)[C@@H]3C[C@]4(C)C[C@@H]4N3C(=O)CNC(=O)CCCOc3ccccc3)CC2)c1 [Compound 64, (1S,3S,5S)-N-(1-(3-(aminomethyl)-5-methylphenyl)cyclopropyl)-5-methyl-2-((4-phenoxybutanoyl)glycyl)-2-azabicyclo[3.1.0]hexane-3-carboxamide]	> 1000
CS(=O)(=O)[C@@H]1C[C@@H](C(=O)NCc2cc3cnccc3[nH]2)N(C(=O)CNC(=O)c2ccc3c(c2)-c2ccccc2C3(F)F)C1 [Compound 7, (2S,4R)-N-((1H-pyrrolo[3,2-c]pyridin-2-yl)methyl)-1-((9,9-difluoro-9H-fluorene-3-carbonyl)glycyl)-4-(methylsulfonyl)pyrrolidine-2-carboxamide]	< 100
O=C(NCC(=O)N1CC2(C[C@H]1C(=O)O)OCCO2)c1ccc(Oc2ccccc2)cc1 [Compound 119, (S)-7-((4-phenoxybenzoyl)glycyl)-1,4-dioxa-7-azaspiro[4.4]nonane-8-carboxylic acid]	> 1000
O=C(NCC(=O)N1CC2(C[C@H]1C(=O)NCc1cc3cnccc3[nH]1)OCCO2)c1ccc2[nH]c3ccccc3c2c1 [Compound 211, (S)-N-((1H-pyrrolo[3,2-c]pyridin-2-yl)methyl)-7-((9H-carbazole-3-carbonyl)glycyl)-1,4-dioxa-7-azaspiro[4.4]nonane-8-carboxamide]	< 100
Cc1ccc(Oc2cccc(C(=O)NCC(=O)N3CCC[C@H]3C(=O)NCc3cc4cnccc4[nH]3)c2)c(F)c1 [Compound 310, (S)-N-((1H-pyrrolo[3,2-c]pyridin-2-yl)methyl)-1-((3-(2-fluoro-4-methylphenoxy)benzoyl)glycyl)pyrrolidine-2-carboxamide]	< 100
C[C@@]12C[C@@H]1N(C(=O)CNC(=O)c1ccc(Oc3ccccc3)cc1)[C@H](C(=O)NCc1cc3c(s1)C(N)=NCC3)C2 [Compound 1, (1S,3S,5S)-N-((7-amino-4,5-dihydrothieno[2,3-c]pyridin-2-yl)methyl)-5-methyl-2-((4-phenoxybenzoyl)glycyl)-2-azabicyclo[3.1.0]hexane-3-carboxamide]	> 1000
